Drawing on ChEMBL document CHEMBL1833824, “Effects of cyclization on stability, structure, and activity of α-conotoxin RgIA at the α9α10 nicotinic acetylcholine receptor and GABA(B) receptor” (J Med Chem, 2011), this text covers inhibition and IC50 for one molecule.

One experiment concerns Oocyte. Description: Inhibition of human alpha-9/rat alpha-10 nACHR expressed in Xenopus oocytes assessed as inhibition of acetylcholine-induced current by voltage clamp assay relative to RgIA. It is filed as cell-based. The following applies: dose or concentration not given here.
Experiment [1] can be described thus: Inhibition of GABA-B receptor-mediated high voltage-activated Ca2+ channel current in Wistar rat DRG neurons by whole-cell patch clamp assay. The following applies: DRG neuron. A general note: In patch-clamp work, channel activity is measured electrically.

SMILES strings stand for the structures. Bridge positions count the residues as written; N and C are the ends. Square brackets hold non-standard residues; d marks the D form. Peptide text beside a SMILES is read from it. Hyp = O=C(O)[C@@H]1C[C@@H](O)CN1

What is called inhibition is the share of the control response that was lost under treatment. One may read the IC50 as the concentration needed to halve the response being measured. Higher therefore signals weaker potency in that assay. As to `N=C(N)NCCC[C@@H]1NC(=O)[C@H](Cc2ccc(O)cc2)NC(=O)[C@H](CCCNC(=N)N)NC(=O)[C@@H]2CSSC[C@H](NC(=O)CN)C(=O)N[C@@H](CSSC[C@@H](C(=O)O)NC1=O)C(=O)N[C@@H](CO)C(=O)N[C@@H](CC(=O)O)C(=O)N1C[C@H](O)C[C@H]1C(=O)N[C@@H](CCCNC(=N)N)C(=O)N2` (H-GCCSD[Hyp]RCRYRC-OH; disulfide 2-8, 3-12), the inhibition with Oocyte amounted to 41%. Further, half-maximal inhibition in experiment [1] (IC50) was put at 20.5 nM.
